According to the supplement of paper PMC10307832:

How the values were obtained:
Assay in all cases: relative viability (nuclei count vs DMSO), 5 days (fraction); higher = more cells survive
Midostaurin + Pemetrexed = compound: CO[C@@H]1[C@H](N(C)C(=O)c2ccccc2)C[C@H]2O[C@]1(C)n1c3ccccc3c3c4c(c5c6ccccc6n2c5c31)C(=O)NC4 [Midostaurin] + Nc1nc2[nH]cc(CCc3ccc(C(=O)N[C@@H](CCC(=O)O)C(=O)O)cc3)c2c(=O)[nH]1 [Pemetrexed] (partner 0.2 µM)
Outline: (§1)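 Lung cancer cell lines in 1536-well plates were dosed by pin tool the day after seeding, either with one drug alone or with a fixed anchor-drug dose plus five library-drug doses (not always all listed) in √10 steps. After 5 days, cells were fixed and their nuclei stained in one step (final 0.05% Triton X-100, 1% formaldehyde, 1 ug/ml Hoechst), then counted on 4× images. Relative viability is the nuclei count in treated wells divided by that in vehicle wells. Values are medians of duplicate plates.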

[1] = compound: COc1cc(-c2nn([C@H]3CC[C@H](N4CCN(C(C)=O)CC4)CC3)c3ncnc(N)c23)ccc1NC(=O)c1cc2ccccc2n1C + CC(=O)Nc1cccc(-n2c(=O)n(C3CC3)c(=O)c3c(Nc4ccc(I)cc4F)n(C)c(=O)c(C)c32)c1 [Trametinib] (partner 0.02 µM)
Outline: as §1

Midostaurin + Decitabine = compound: CO[C@@H]1[C@H](N(C)C(=O)c2ccccc2)C[C@H]2O[C@]1(C)n1c3ccccc3c3c4c(c5c6ccccc6n2c5c31)C(=O)NC4 [Midostaurin] + Nc1ncn([C@H]2C[C@H](O)[C@@H](CO)O2)c(=O)n1 [Decitabine] (partner 2 µM)
Outline: as §1

Midostaurin + Tozasertib = compound: CO[C@@H]1[C@H](N(C)C(=O)c2ccccc2)C[C@H]2O[C@]1(C)n1c3ccccc3c3c4c(c5c6ccccc6n2c5c31)C(=O)NC4 [Midostaurin] + Cc1cc(Nc2cc(N3CCN(C)CC3)nc(Sc3ccc(NC(=O)C4CC4)cc3)n2)n[nH]1 [Tozasertib] (partner 0.1 µM)
Outline: as §1

[2] = compound: COc1cc(-c2nn([C@H]3CC[C@H](N4CCN(C(C)=O)CC4)CC3)c3ncnc(N)c23)ccc1NC(=O)c1cc2ccccc2n1C + NC(=O)Nc1cc(-c2cccc(F)c2)sc1C(=O)N[C@H]1CCCNC1 [AZD7762] (partner 0.2 µM)
Outline: as §1

| Cell Line | relative viability (Midostaurin + Pemetrexed; first compound 0.01 µM) | relative viability (Midostaurin + Pemetrexed; first compound 0.03162 µM) | relative viability (Midostaurin + Pemetrexed; first compound 0.1 µM) | relative viability (Midostaurin + Pemetrexed; first compound 0.3162 µM) | relative viability ([1]; first compound 0.0128 µM) | relative viability ([1]; first compound 0.04048 µM) | relative viability ([1]; first compound 0.128 µM) | relative viability ([1]; first compound 1.28 µM) | relative viability (Midostaurin + Decitabine; first compound 0.01 µM) | relative viability (Midostaurin + Decitabine; first compound 0.03162 µM) | relative viability (Midostaurin + Decitabine; first compound 0.1 µM) | relative viability (Midostaurin + Decitabine; first compound 0.3162 µM) | relative viability (Midostaurin + Tozasertib; first compound 0.01 µM) | relative viability (Midostaurin + Tozasertib; first compound 0.03162 µM) | relative viability (Midostaurin + Tozasertib; first compound 0.1 µM) | relative viability (Midostaurin + Tozasertib; first compound 0.3162 µM) | relative viability ([2]; first compound 0.0128 µM) | relative viability ([2]; first compound 0.04048 µM) | relative viability ([2]; first compound 0.128 µM) | relative viability ([2]; first compound 1.28 µM) |
| --- | --- | --- | --- | --- | --- | --- | --- | --- | --- | --- | --- | --- | --- | --- | --- | --- | --- | --- | --- | --- |
| 201T | 0.345 | 0.311 | 0.323 | 0.32 | 0.743 | 0.727 | 0.695 | 0.585 | 0.878 | 0.91 | 0.83 | 0.867 | 0.974 | 0.913 | 0.915 | 0.891 | 0.707 | 0.51 | 0.584 | 0.465 |
| A549 | – | – | – | – | – | – | – | – | 0.255 | 0.221 | 0.216 | 0.222 | – | – | – | – | – | – | – | – |
| A-427 | 1.04 | 0.888 | 0.94 | 1.08 | 0.82 | 0.462 | 0.759 | 0.711 | 0.574 | 0.6 | 0.529 | 0.547 | 0.232 | 0.215 | 0.193 | 0.172 | 0.76 | 0.641 | 0.782 | 0.727 |
| ABC-1 | – | – | – | – | – | – | – | – | 1.02 | 1.14 | 0.942 | 1.26 | 0.146 | 0.191 | 0.174 | 0.201 | 0.658 | 0.759 | 0.697 | 0.728 |
| BEN | 0.809 | 0.674 | 0.665 | 0.752 | 1.07 | 0.97 | 0.953 | 0.838 | 0.732 | 0.712 | 0.685 | 0.806 | 0.501 | 0.551 | 0.401 | 0.459 | 0.532 | 0.729 | 0.591 | 0.671 |
| CAL-12T | 1.19 | 1.19 | 1.28 | 0.765 | 0.331 | 0.289 | 0.349 | 0.326 | – | – | – | – | 0.345 | 0.27 | 0.266 | 0.215 | 0.675 | 0.7 | 0.49 | 0.581 |
| COR-L23 | 0.195 | 0.205 | 0.195 | 0.188 | 0.585 | 0.25 | 0.564 | 0.592 | 0.381 | 0.441 | 0.448 | 0.434 | 0.204 | 0.198 | 0.166 | 0.152 | – | – | – | – |
| COR-L 105 | 1.15 | 0.945 | 1.11 | 0.873 | 0.481 | 0.489 | 0.412 | 0.298 | 0.673 | 0.633 | 0.622 | 0.605 | 0.404 | 0.356 | 0.341 | 0.313 | – | – | – | – |
| ChaGo-K-1 | 0.25 | 0.266 | 0.256 | 0.277 | 0.872 | 0.904 | 0.722 | 0.68 | 0.488 | 0.55 | 0.533 | 0.54 | 0.312 | 0.214 | 0.229 | 0.219 | 0.829 | 0.779 | 0.818 | 0.72 |
| EKVX | 0.514 | 0.349 | 0.379 | 0.404 | 0.406 | 0.236 | 0.305 | 0.236 | 0.312 | 0.312 | 0.353 | 0.349 | 0.369 | 0.414 | 0.366 | 0.343 | 0.79 | 0.691 | 0.685 | 0.385 |
| EMC-BAC-2 | 0.407 | 0.431 | 0.383 | 0.457 | 0.901 | 0.537 | 0.834 | 1.02 | 0.922 | 0.933 | 0.897 | 0.818 | 0.267 | 0.296 | 0.243 | 0.273 | 1.13 | 1.28 | 1.09 | 1.09 |
| EPLC-272H | 0.229 | 0.357 | 0.256 | 0.256 | 0.331 | 0.205 | 0.278 | 0.24 | 0.35 | 0.332 | 0.356 | 0.345 | 0.261 | – | 0.186 | 0.311 | 0.253 | 0.207 | 0.215 | 0.142 |
| H3255 | 0.571 | 0.494 | 0.529 | 0.579 | 0.611 | 0.44 | 0.613 | 0.499 | 0.6 | 0.557 | 0.615 | 0.524 | 0.624 | 0.635 | 0.61 | 0.695 | 0.879 | 0.87 | 0.894 | 0.633 |
| HARA | 0.225 | 0.309 | 0.222 | 0.239 | 0.617 | 0.273 | 0.56 | 0.418 | 0.584 | 0.528 | 0.539 | 0.591 | 0.142 | 0.0861 | 0.0946 | 0.0968 | 0.257 | 0.432 | 0.124 | 0.281 |
| HCC-15 | 0.22 | 0.229 | 0.238 | 0.199 | 0.421 | 0.269 | 0.394 | 0.294 | 0.657 | 0.669 | 0.614 | 0.585 | 0.449 | 0.419 | 0.249 | 0.324 | 1.46 | 1.24 | 1.21 | 1.28 |
| HCC-44 | 0.604 | 0.628 | 0.657 | 0.663 | 1.19 | 0.716 | 1.07 | 1.03 | 0.899 | 0.972 | 0.989 | 0.997 | – | 1.04 | 0.819 | 0.778 | 1.13 | 1.17 | 0.981 | 1.19 |
| HCC-78 | 0.926 | 0.857 | 0.946 | 0.865 | 0.851 | 0.536 | 0.776 | 0.453 | 0.651 | 0.676 | 0.613 | 0.72 | 0.421 | 0.422 | 0.408 | 0.366 | 0.52 | 0.851 | 0.52 | 0.331 |
